Converted amounts (≈) assume the structure as drawn. Where two headings read alike, the source gives them in different places.

As a reminder, the IC50 is the concentration that inhibits the measured activity by half.

Experiment [1] concerns Mycobacterium tuberculosis H37Rv. The experiment is described as follows: In vitro assay for antimicrobial susceptibility (microplate Alamar blue, MIC). It is filed as cell-based. The following applies: for MIC: Mycobacterium tuberculosis, read-out: MIC (μg/mL) against H37Rv. A general note: Resazurin is reduced to fluorescent resorufin, in cell work by metabolically active cells.

Experiment [2] concerns mitochondrial protein synthesis (MPS) in H9C2 cells. The experiment is described as follows: In vitro assay for MPS inhibition (COX-1 / SDH-A ELISA in H9C2 cells). It is filed as cell-based, rat. The note with it: read-out: IC50 (μM) MPS inhibition. A general note: ELISA stands for enzyme-linked immunosorbent assay.
The mark [3] stands for this setting: M. tuberculosis H37Rv, 7H9 broth, Alamar blue.
Setting [4] is: Rattus norvegicus, 120 h, H9C2 cells, 5 days incubation.

`O=C(NC[C@H]1CN(c2ccc(N3CCCSCC3)c(F)c2)C(=O)O1)C1CCC1` [OTB-414, (S)—N-((3-(3-Fluoro-4-(1,4-thiazepan-4-yl)phenyl)-2-oxooxazolidin-5-yl)methyl)cyclobutanecarboxamide]: the MIC in experiment [1] (setting [3]) was determined as 0.171 µg/mL (≈ 0.42 µM).
For the compound `O=C1O[C@@H](CNc2ccon2)CN1c1ccc(N2CC3(COC3)C2)c(F)c1` [OBD-056], the MIC in experiment [1] (setting [3]) worked out at 1.9 µg/mL (≈ 5.08 µM). The IC50 in experiment [2] (setting [4]) was determined as 17 µM.
For `COC(=O)NC[C@H]1CN(c2ccc(N3CC4CCC(C3)O4)c(F)c2)C(=O)O1` [OBD-111], in that order: 0.49 µg/mL (≈ 1.29 µM) and 7 µM.
For `COC(=O)NC[C@H]1CN(c2cc(F)c(N3CC4(CSC4)C3)c(F)c2)C(=O)O1` [OTB-242, Methyl (S)-((3-(3,5-difluoro-4-(2-thia-6-azaspiro[3.3]heptan-6-yl)phenyl)-2-oxo-oxazolidin-5-yl)methyl)carbamate], in that order: 0.02 to 0.06 µg/mL (≈ 0.0501 to 0.15 µM) and 23 to 71 µM.
As to “(R)-5-((2H-1,2,3-Triazol-2-yl)methyl)-3-(3-fluoro-4-(2-oxa-6-azaspiro[3.3]heptan-6-yl)phenyl)oxazolidin-2-one [OTB-204]”, the “MIC (μg/mL) against H37Rv” value in experiment [1] (setting [3]) was 3.2 to 3.7 µg/mL. For the same compound, the IC50 in experiment [2] (H9C2 cells, 5 days incubation) is > 100 µM.
For the compound `CC(=O)NC[C@H]1CN(c2cc(F)c(N3[C@@H]4CC[C@H]3CSC4)c(F)c2)C(=O)O1` [OTB-510, N—(((S)-3-(4-((1R,5S)-3-Thia-8-aza-bicyclo[3.2.1]octan-8-yl)-3,5-difluorophenyl)-2-oxo-oxazolidin-5-yl)methyl)acetamide], in experiment [1] (H37RV), the MIC is 0.03 to 0.22 µg/mL (≈ 0.0755 to 0.554 µM). In experiment [2] (Rattus norvegicus, H9c2, 120 h), the IC50 lay in the range of 3 to 7 µM.
Take `O=C(NC[C@H]1CN(c2ccc(N3CC4(C3)C[S+]([O-])C4)c(F)c2)C(=O)O1)C1CC1` [OTB-255]: the MIC in experiment [1] (setting [3]) was 1.9 µg/mL (≈ 4.66 µM). Further, the IC50 in experiment [2] (setting [4]) stood at 10 µM.
For `O=C(NC[C@H]1CN(c2ccc(N3CC4(COC4)C3)c(F)c2)C(=O)O1)C1CCC1` [OTB-239, (S)—N-((3-(3-Fluoro-4-(2-oxa-6-azaspiro[3.3]heptan-6-yl)phenyl)-2-oxo-oxazolidin-5-yl)methyl)cyclobutanecarboxamide], in that order: 2.1 to 3.8 µg/mL (≈ 5.39 to 9.76 µM) and 19 to 67 µM.
With `O=C1O[C@@H](Cn2ccnn2)CN1c1cc(F)c(N2C3CCC2C[S+]([O-])C3)c(F)c1` (stereo partly shown) [OTB-517], the MIC in experiment [1] (H37RV) fell in the range of 1.3 to 2 µg/mL (≈ 3.07 to 4.72 µM). For the same compound, the IC50 in experiment [2] (Rattus norvegicus, H9c2, 120 h) lay within 30 to 55 µM.
`O=C1O[C@@H](Cn2ccnn2)CN1c1cc(F)c(N2[C@@H]3CC[C@H]2CSC3)c(F)c1` [OTB-511, (R)-5-((1H-1,2,3-Triazol-1-yl)methyl)-3-(4-((1R,5S)-3-thia-8-azabicyclo[3.2.1]octan-8-yl)-3,5-difluorophenyl)oxazolidin-2-one]: the MIC in experiment [1] (H37RV) was 0.06 to 0.2 µg/mL (≈ 0.147 to 0.491 µM).
As to `CCCC(=O)NC[C@H]1CN(c2ccc(N3CCCS(=O)(=O)CC3)c(F)c2)C(=O)O1` [OBD-007, (S)—N-((3-(4-(1,1-Dioxido-1,4-thiazepan-4-yl)-3-fluorophenyl)-2-oxooxazolidin-5-yl)methyl)butyramide], the MIC in experiment [1] (setting [3]) was 0.46 µg/mL (≈ 1.08 µM). The IC50 in experiment [2] (setting [4]) is 19.8 µM.
Consider `O=C(NC[C@H]1CN(c2cc(F)c(N3[C@@H]4CC[C@H]3CSC4)c(F)c2)C(=O)O1)C1CCC1` [OTB-509, N—(((S)-3-(4-((1R,5S)-3-Thia-8-aza-bicyclo[3.2.1]octan-8-yl)-3,5-difluorophenyl)-2-oxo-oxazolidin-5-yl)methyl)cyclobutanecarboxamide], for which, in experiment [1] (H37RV), the MIC came out at 0.04 µg/mL (≈ 0.0914 µM). The IC50 in experiment [2] (Rattus norvegicus, H9c2, 120 h) is 5 µM.
On to `CC(=O)NC[C@H]1CN(c2cc(F)c(N3CCCSCCC3)c(F)c2)C(=O)O1` [OBD-027], for which the MIC in experiment [1] (H37RV) amounted to 0.3 µg/mL (≈ 0.751 µM).
For the compound `O=C1O[C@@H](CO)CN1c1ccc(N2CC3(COC3)C2)c(F)c1` [OTB-201, (R)-3-(3-Fluoro-4-(2-oxa-6-azaspiro[3.3]heptan-6-yl)phenyl)-5-(hydroxymethyl)oxazolidin-2-one], the MIC in experiment [1] (setting [3]) turned out to be 16 µg/mL (≈ 51.9 µM).
Turning to `O=C1O[C@@H](Cn2ccnn2)CN1c1ccc(N2[C@@H]3CC[C@H]2C[S+]([O-])C3)c(F)c1` (stereo partly drawn) [OTB-505, (5R)-5-((1H-1,2,3-Triazol-1-yl)methyl)-3-(3-fluoro-4-((1R,5S)-3-oxido-3-thia-8-azabicyclo[3.2.1]octan-8-yl)phenyl)oxazolidin-2-one], the MIC in experiment [1] (H37RV) is 1.8 to 3.5 µg/mL (≈ 4.44 to 8.63 µM).
With `CS(=O)(=O)NC[C@H]1CN(c2ccc(N3CC4(COC4)C3)c(F)c2)C(=O)O1` [OTB-222, (R)—N-((3-(3-Fluoro-4-(2-oxa-6-azaspiro[3.3]heptan-6-yl)phenyl)-2-oxo-oxazolidin-5-yl)methyl)methanesulfonamide], the MIC in experiment [1] (setting [3]) worked out at 7.4 µg/mL (≈ 19.2 µM).
With `O=C1O[C@@H](CO)CN1c1ccc(N2[C@@H]3CC[C@H]2CSC3)c(F)c1` [OTB-501, (R)-3-(4-((1R,5S)-3-Thia-8-azabicyclo[3.2.1]octan-8-yl)-3-fluorophenyl)-5-(hydroxymethyl)oxazolidin-2-one], the MIC in experiment [1] (H37RV) was 4.5 µg/mL (≈ 13.3 µM).
On to `CNC[C@H]1CN(c2ccc(N3CCCSCC3)c(F)c2)C(=O)O1` [OTB-109, (S)-3-[3-Fluoro-4-(1,4-thiazepan-4-yl)phenyl]-5-[(methylamino)methyl]oxazolidin-2-one], for which the MIC in experiment [1] (setting [3]) was determined as 32 µg/mL (≈ 94.3 µM).
Same read-out and setting: the figure for `COC(=O)NC[C@H]1CN(c2cc(F)c(N3CC4CCC(C3)O4)c(F)c2)C(=O)O1` [OBD-049] is 0.25 to 1 µg/mL (≈ 0.629 to 2.52 µM); for `COC(=O)NC[C@H]1CN(c2ccc(N3CC4(COC4)C3)c(F)c2)C(=O)O1` [OTB-223, Methyl (S)-((3-(3-fluoro-4-(2-oxa-6-azaspiro[3.3]heptan-6-yl)phenyl)-2-oxo-oxazolidin-5-yl)methyl)carbamate] it is 0.8 to 2.6 µg/mL (≈ 2.19 to 7.12 µM).
For the compound `CS(=O)(=O)NC[C@H]1CN(c2ccc(N3[C@@H]4CC[C@H]3CSC4)c(F)c2)C(=O)O1` [OTB-236, N—(((R)-3-(4-((1R,5S)-3-Thia-8-azabicyclo[3.2.1]octan-8-yl)-3-fluorophenyl)-2-oxo-oxazolidin-5-yl)methyl)methanesulfonamide], the MIC in experiment [1] (H37RV) was found to be 14.3 µg/mL (≈ 34.3 µM).
Regarding `O=C1O[C@@H](Cn2cncn2)CN1c1ccc(N2C3CCC2CSC3)c(F)c1` [OBD-021, (5R)-5-((1H-1,2,4-triazol-1-yl)methyl)-3-(4-(3-thia-8-aza-bicyclo[3.2.1]octan-8-yl)-3-fluorophenyl)oxazolidin-2-one], the MIC in experiment [1] (H37RV) came out at 27.5 µg/mL (≈ 70.5 µM).
Consider `O=C(NC[C@H]1CN(c2ccc(N3CCCSCCC3)c(F)c2)C(=O)O1)c1cccs1` [OTB-118, (S)—N-[[3-(3-Fluoro-4-(1,5-thiazocan-5-yl)phenyl)-2-oxo-oxazolidin-5-yl]methyl]thiophene-2-carboxamide], for which, in experiment [1] (setting [3]), the MIC worked out at 1.55 µg/mL (≈ 3.44 µM).
As for `O=C1O[C@@H](Cn2ccnn2)CN1c1ccc(N2[C@@H]3CC[C@H]2CSC3)c(F)c1` [OTB-504, (R)-5-((1H-1,2,3-Triazol-1-yl)methyl)-3-(4-((1R,5S)-3-thia-8-azabicyclo[3.2.1]octan-8-yl)-3-fluorophenyl)oxazolidin-2-one], the MIC in experiment [1] (H37RV) lay within 0.5 to 0.7 µg/mL (≈ 1.28 to 1.8 µM).
`O=C(NC[C@H]1CN(c2ccc(N3CC4(COC4)C3)c(F)c2)C(=O)O1)c1cccs1` [OTB-206, (S)—N-((3-(3-Fluoro-4-(2-oxa-6-azaspiro[3.3]heptan-6-yl)phenyl)-2-oxo-oxazolidin-5-yl)methyl)thiophene-2-carboxamide]: the MIC in experiment [1] (setting [3]) amounted to 2.8 µg/mL (≈ 6.71 µM).
On the same count and under the same terms, in the case of `O=C1O[C@@H](Cn2ccnn2)CN1c1cc(F)c(N2CC3(COC3)C2)c(F)c1` [OTB-234, (R)-5-((1H-1,2,3-Triazol-1-yl)methyl)-3-(3,5-difluoro-4-(2-oxa-6-azaspiro[3.3]heptan-6-yl)phenyl)oxazolidin-2-one] it was 0.39 to 4 µg/mL (≈ 1.03 to 10.6 µM); in that of `O=C(NC[C@H]1CN(c2ccc(N3CC4(CSC4)C3)c(F)c2)C(=O)O1)C1CCC1` [OTB-250], 0.06 µg/mL (≈ 0.148 µM).
Turning to `CC(=O)NC[C@H]1CN(c2ccc(N3[C@@H]4CC[C@H]3C[S+]([O-])C4)c(F)c2)C(=O)O1` (stereo partly drawn) [OTB-503, N-(((5S)-3-(3-Fluoro-4-((1R,5S)-3-oxido-3-thia-8-azabicyclo[3.2.1]octan-8-yl)phenyl)-2-oxo-oxazolidin-5-yl)methyl)acetamide], in experiment [1] (H37RV), the MIC lay in the range of 0.2 to 1.3 µg/mL (≈ 0.506 to 3.29 µM).
On the same count and under the same terms, in the case of `O=C1O[C@@H](Cn2cncn2)CN1c1ccc(N2[C@@H]3CC[C@H]2C[S+]([O-])C3)c(F)c1` (stereo partly drawn) [OBD-018, (5R)-5-((1H-1,2,4-Triazol-1-yl)methyl)-3-(3-fluoro-4-((1R,5S)-3-oxido-3-thia-8-azabicyclo[3.2.1]octan-8-yl)phenyl)oxazolidin-2-one] it was > 32 µg/mL.
As for `O=C(NC[C@H]1CN(c2ccc(N3CC4(CSC4)C3)c(F)c2)C(=O)O1)C1CC1` [OTB-249], the MIC in experiment [1] (setting [3]) was in the range of 0.06 to 0.15 µg/mL (≈ 0.153 to 0.383 µM).
The same measure, in the same setting: in the case of `O=C(NC[C@H]1CN(c2cc(F)c(N3CC4(CSC4)C3)c(F)c2)C(=O)O1)C1CCC1` [OTB-244, (S)—N-((3-(3,5-Difluoro-4-(2-thia-6-azaspiro[3.3]heptan-6-yl)phenyl)-2-oxo-oxazolidin-5-yl)methyl)cyclobutanecarboxamide] it was 0.02 to 0.6 µg/mL (≈ 0.0472 to 1.42 µM); in that of `CC(=O)NC[C@H]1CN(c2ccc(N3CCC[S+]([O-])CCC3)c(F)c2)C(=O)O1` [OTB-124, (S)—N-[[3-(3-Fluoro-4-(1-oxido-1,5-thiazocan-5-yl)phenyl)-2-oxo-oxazolidin-5-yl]methyl]acetamide], 0.26 to 1.4 µg/mL (≈ 0.654 to 3.52 µM).
Turning to `O=C(NC[C@H]1CN(c2ccc(N3CC4(COC4)C3)c(F)c2)C(=O)O1)c1ccco1` [OTB-205, (S)—N-((3-(3-Fluoro-4-(2-oxa-6-azaspiro[3.3]heptan-6-yl)phenyl)-2-oxo-oxazolidin-5-yl)methyl)furan-2-carboxamide], the MIC in experiment [1] (setting [3]) came out at 3.9 µg/mL (≈ 9.72 µM).
With `NC[C@H]1CN(c2cc(F)c(N3CC4(COC4)C3)c(F)c2)C(=O)O1` [OBD-062], the MIC in experiment [1] (setting [3]) is 0.1 to 0.25 µg/mL (≈ 0.307 to 0.768 µM).
Still for that read-out and setting: in the case of `CCCC(=O)NC[C@H]1CN(c2cc(F)c(N3CCCSCCC3)c(F)c2)C(=O)O1` [OBD-026, (S)—N-((3-(3,5-difluoro-4-(1,5-thiazocan-5-yl)phenyl)-2-oxooxazolidin-5-yl)methyl) butyramide] it was 0.4 µg/mL (≈ 0.936 µM).
Regarding “(R)-5-((1H-1,2,3-Triazol-1-yl)methyl)-3-(3-fluoro-4-(2-oxa-6-azaspiro[3.3]heptan-6-yl)phenyl)oxazolidin-2-one [OTB-203]”, the “MIC (μg/mL) against H37Rv” value in experiment [1] (setting [3]) is >32 µg/mL.

(Values after patent US11964949B2, “Substituted phenyloxazolidinones for antimicrobial therapy” (priority 2015, dated 2024).)
